In patent publication US4282363A, “1-Nitro-2-(2-alkynylamino)-2-[(2-pyridylmethylthio)-ethylamino]ethylene derivatives” (Bristol-Myers Company, priority 1980, dated 1981):
Like-named read-outs stand apart in the source and are kept apart here.

How the values were obtained:
[1] = molecular target: T1, histamine H2 -receptor (Cavia porcellus, UniProt P47747); experiment: Histamine H2-receptor antagonism, isolated guinea pig right atria assay (displacement of histamine concentration-response curve of atrial rate); parameters: species or system guinea pig (male Hartley); settings: for Histamine ED50 With 95% Confidence Limits (after test compound): histamine ED50 in presence of test compound 3 × 10^-5 M, 30 minute incubation; for Concentration-Response Curve Displacement Factor: test compound 3 × 10^-5 M, displacement of histamine curve to the right
T1 construct: The spontaneously beating right atrium was dissected free from other tissues; from tissue; host or cells: isolated, spontaneously beating right atrium of male Hartley guinea pigs
T1 sequence (P47747 whole entry): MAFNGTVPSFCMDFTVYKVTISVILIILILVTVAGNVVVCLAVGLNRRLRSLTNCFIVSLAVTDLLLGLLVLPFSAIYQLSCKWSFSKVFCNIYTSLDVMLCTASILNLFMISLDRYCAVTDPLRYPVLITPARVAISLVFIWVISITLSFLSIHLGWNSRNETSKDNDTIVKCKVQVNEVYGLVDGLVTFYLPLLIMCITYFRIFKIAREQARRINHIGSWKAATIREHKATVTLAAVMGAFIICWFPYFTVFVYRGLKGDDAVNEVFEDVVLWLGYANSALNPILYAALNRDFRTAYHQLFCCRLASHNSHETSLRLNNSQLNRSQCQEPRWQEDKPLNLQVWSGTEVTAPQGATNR
Experimental: Subsequent investigations by Hughes and Coret, Proc. Soc. […] Black et al., Agents and Actions, 3, 133 (1973) and Brimblecombe et al., Fed. […] The present comparative studies were carried out using a modification of the procedure reported by Reinhardt et al., Agents and Actions, 4, 217 (1974).
Male Hartley strain guinea pigs (350-450 gm.) were sacrificed by a blow on the head. The heart was excised and placed in a Petri dish of oxygenated (95% O2, 5% CO2) modified Krebs solution (g./liter: NaCl 6.6, KCl 0.35, MgSO4.7H2 O 0.295, KH2 PO4 0.162, CaCl2 0.238, NaHCO3 2.1 and dextrose 2.09). The spontaneously beating right atrium was dissected free from other tissues and a silk thread (4-0) attached to each end. The atrium was suspended in a 20 ml. muscle chamber containing oxygenated modified Krebs solution maintained at 32° C. Atrial contractions were recorded isometrically be means of a Grass FT 0.03 force displacement transducer and recordings of contractile force and rate were made with Beckman RP Dynograph.
A resting tension of 1 g. was applied to the atrium and it was allowed to equilibrate for 1 hour.
Concentration-response curve displacement factors were calculated as follows: [formula] […] [formula]

[2] = tested on: gastric secretion; settings: man, cited from earlier work
[3] = tested on: histamine H2 -receptors; settings: isolated right atria, cited from earlier work
[4] = tested on: peptic ulcer disease; settings: cited from earlier work
[5] = tested on: gastric secretion; settings: animals; cited from earlier work
[6] = 200-300 mg. tablets, multi daily doses; cited from earlier work
[7] = tested on: H2 -receptors; settings: compared with other H2 antagonists; cited from earlier work
[8] = clinical use; cited from earlier work

Which “Histamine ED50 With 95% Confidence Limits (after test compound)” value [1] does the source give for `C#CCNC(=C[N+](=O)[O-])NCCSCc1ncccc1Cl` [BL-6075, 1-Nitro-2-(2-propynlamino)-2-{2-[(3-chloro-2-pyridyl)-methylthio]ethylamino}ethylene] here?
The value was 20.97 µg/mL.

And the “Concentration-Response Curve Displacement Factor” value [1]?
The value was 52.77.

Which “Histamine ED50 With 95% Confidence Limits (after test compound)” value [1] does the source give for `C#CCNC(=NCCSCc1ncccc1Cl)NC#N` [BL-6083, N-Cyano-N'-(2-propyn-1-yl)-N"-{2-[(3-chloro-2-pyridyl)-methylthio]ethyl}guanidine] here?
Its value is 57.92 µg/mL.

What about the “Activity Ratio Relative to Cimetidine” value ([1]; ratio of displacement factors, cimetidine = 1.0, times more potent/active than cimetidine) of the same compound?
The value was 8.19.

What about the “Concentration-Response Curve Displacement Factor” value [1] of the same compound?
The value was 206.86.

For `CNC(=S)NCCCCc1c[nH]cn1` [Burimamide], which “inhibition of gastric secretion” value [2] is on record?
Its value is “inhibits gastric secretion”.

And the “antagonism of H2-receptors” value [3]?
The value was “competitive antagonist”.

And the “clinical effectiveness as H2 -receptor antagonist” value ([4]; in vivo)?
Its value is “first clinically effective H2 -receptor antagonist”.

What about the “inhibition of gastric secretion” value [5] of the same compound?
Its value is “inhibits gastric secretion”.

Which “Histamine ED50 With 95% Confidence Limits (after test compound)” value [1] does the source give for `CNC(=NC#N)NCCSCc1[nH]cnc1C` [Cimetidine] here?
The value was 4.80 µg/mL.

And the half-life [6]?
Its half-life is “relatively short”.

And the “therapeutic effectiveness in peptic ulcer disease” value ([4]; clinical evaluation)?
Its value is “effective therapeutic agent in the treatment of peptic ulcer disease”.

And the “H2 antagonist potency, comparison in words” value [7]?
Its value is “as effective an H2 antagonist as metiamide”.

And the “toxicity (agranulocytosis)” value [8]?
Its value is “without producing agranulocytosis”.

Which results are given for `NCCc1c[nH]cn1` [Histamine, histamine]?
histamine concentration giving maximal response ([1]; final molar bath concentration, increase in atrial rate): 30 µM; effect on contractile rate ([3]; agonist): concentration-related increases in the contractile rate

For `CNC(=S)NCCSCc1[nH]cnc1C` [Metiamide], which oral activity ([2]; oral) is on record?
Its oral activity is “orally active in man”.

What about the “H2 antagonist potency, comparison in words” value [7] of the same compound?
The value was “more potent than burimamide”.

And the “toxicity (agranulocytosis)” value [8]?
Its value is “toxicity (agranulocytosis)”.
